In patent US20260285846A1, “REV-ERB AGONISTS FOR TH17-MEDIATED INFLAMMATORY DISORDERS” (UNIVERSITY OF FLORID RESEARCH FOUNDATION, iNCORPORATED, priority 2021, published 2026) one finds EC50 data, which are given here for one molecule.

The target of this assay is REV-ERBα LBD (Homo sapiens, UniProt P20393, DEL324-422). As to the kind of experiment: biochemical. The following applies: FRET assay; 6xHistag-REV-ERBα LBD with FITC-labeled SMRT corepressor peptide; read-out: REVERBα (Agonism of REV-ERBα, EC50). An outline of the steps:
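Serially diluted ligands were incubated 2 h at 4° C, in triplicate, with E. coli-expressed His-REV-ERBα LBD (281-614 Δ324-422 or 381-579; 4 nM), Tb-anti-His (1 nM) and FITC-labelled SMRT peptide (400 nM). EC50 came from sigmoidal fits of the 520/495 nm TR-FRET ratio.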

Chain of REV-ERBα LBD (P20393 with tags, fused parts or gaps DEL324-422): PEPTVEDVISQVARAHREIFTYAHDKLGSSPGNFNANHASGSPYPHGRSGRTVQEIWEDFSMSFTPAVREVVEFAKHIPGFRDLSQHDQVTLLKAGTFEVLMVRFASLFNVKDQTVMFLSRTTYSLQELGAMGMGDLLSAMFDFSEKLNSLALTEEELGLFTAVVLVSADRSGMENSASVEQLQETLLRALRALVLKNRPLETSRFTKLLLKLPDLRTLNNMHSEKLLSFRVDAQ
Chain of REV-ERBα LBD (Q9Y618 2335-2356 partner limits assumed): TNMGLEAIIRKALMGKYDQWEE

As usually defined, the EC50 is the midpoint of the concentration-response curve. Regarding `O=S(=O)(N[C@@H](c1cn(C2CC(F)C2)c2cc(-c3cc(F)cnc3C(F)(F)F)c(F)cc12)C(F)F)C1CC1` (stereo partly drawn) [Compound 182, (S)—N-(2,2-difluoro-1-(5-fluoro-6-(5-fluoro-2-(trifluoromethyl)pyridin-3-yl)-1-(3-fluorocyclobutyl)-1H-indol-3-yl)ethyl)cyclopropanesulfonamide], the 50% effective concentration (EC50) is below 100 nM.
